Measured values reported in patent publication US20220040304A1, “A COMPOSITION FOR CANCER CELL DEATH AND ITS USE” (Industry-University Cooperation Foundation Hanyang …, priority 2018, published 2022).
Where “and” joins values, the source holds several entries; their conditions need not be identical. Identical values can stand only once.

How the values were obtained:
MCF-7 cells [1] = test: MTT colorimetric change and cell viability after light irradiation; type: cell-based, human; conditions: MCF-7, protein 10 μM 24 hours, light 10 mW/cm^2, no Co-h
Description: MCF-7 cells were seeded at 5×10^5 cells/mL in a 96-well plate (SPL Cell Culture Plate, 96 well (SPL, Cat #30096)), and cultured at 37° C. for 24 hours (overnight). After the overnight culture, the cells were washed with FBS & Phenol red-free media (RPMI, Well Gene., Korea, Cat #LM011-02), and 100 μL of an FBS-free medium containing the purified protein (final concentration: 10 μM) was added, followed by reaction at 37° C. for 24 hours. After the reaction for 24 hours, the cells were washed with FBS & Phenol red-free media (RPMI), and then 100 μL of FBS & Phenol red-free media (RPMI) was added again. After light irradiation at 10 mW/cm^2 over time, the cells were washed with FBS & Phenol red-free media (RPMI), and 100 μL of FBS & Phenol red-free media (RPMI) was added again. 10 μL of 3-(4,5-dimethylthiazol-2-yl)-2,5-diphenyltetrazolium bromide (MTT; Cell Biolabs Inc., USA; final concentration: 1×) was added, followed by reaction at 37° C. for 4 hours. 100 μL of a supernatant was removed, and 100 μL of DMSO (Sigma-Aldrich., USA) was added, followed by reaction for 10 minutes. The colorimetric change of MTT according to a protein type treated to the cells and light irradiation time was confirmed, and then cell viability was confirmed by measuring the absorbance intensity at 570 nm using a plate reader.

[2] = Fluorescence assay of purified proteins (excitation/emission); type: physicochemical; conditions: protein 10 μM in 1×PBS
Description: 100 μL of buffer (1×PBS) containing the protein purified in Example 1 (final concentration: 10 μM) was dispensed into a 96-well plate (SPL Cell Culture Plate, 96 well (SPL, Cat #32096)). Afterward, a fluorescence signal level was detected by fluorescence assay using a Thermo Scientific™ Varioskan™ Flash Multimode Reader.

MCF-7 cells [3] = test: MTT colorimetric change and cell viability after reaction with Co-h substrate; type: cell-based, human; conditions: MCF-7, protein 10 μM 24 hours, Co-h 150 μM, without light irradiation
Description: MCF-7 cells were seeded at 5×10^5 cells/mL in a 96-well plate (SPL Cell Culture Plate, 96 well (SPL, Cat #30096)), and cultured at 37° C. for 24 hours (overnight).
After the culture for 24 hours, the cells were washed with FBS & Phenol red-free media (RPMI), and 100 μL of an FBS-free medium containing the purified protein (final concentration: 10 μM) was added, followed by reaction at 37° C. for 24 hours.
After the reaction for 24 hours, the cells were washed with FBS & Phenol red-free media (RPMI), and then 100 μL of FBS & Phenol red-free media (RPMI) containing a Co-h substrate solution (final concentration: 150 μM) was added. The cells were washed with FBS & Phenol red-free media (RPMI), and 100 μL of fresh FBS & Phenol red-free media (RPMI) were then added.
10 μL of 3-(4,5-dimethylthiazol-2-yl)-2,5-diphenyltetrazolium bromide (MTT) (final concentration: 1×) was added, followed by reaction at 37° C. for 4 hours. After 100 μL of a supernatant was removed, 100 μL of DMSO was added, followed by reaction for 10 minutes. The colorimetric change of MTT according to a protein type treated to the cells and the light irradiation time was checked, and then cell viability was confirmed by measuring the absorbance intensity at 570 nm using a plate reader. […]

[4] = Bioluminescence assay of purified proteins with Co-h substrate (BRET); type: physicochemical; conditions: protein 1 μM, Co-h 50 μM, 1×PBS
Description: In addition, 100 μL of buffer (1×PBS) containing the protein purified in Example 1 (final concentration: 1 μM) was dispensed into a 96-well plate (SPL Cell Culture Plate, 96 well (SPL, Cat #30196)), and bioluminescence assay was then performed using 50 μL of buffer (1×PBS) containing a Co-h substrate solution (final concentration: 50 μM), which is a wild-type 2-deoxy derivative. Bioluminescence intensity was immediately measured at a wavelength of 300 to 800 nm using a Thermo Scientific™ Varioskan™ Flash Multimode Reader.

MCF-7 = test: Cell death with Co-h substrate by cell type (SYTOX Green or EthD-1/DAPI); type: cell-based, human; conditions: MCF-7, protein 10 μM, Co-h 150 μM for 5 minutes
Description: (§1) The cells were seeded at 5×10^5 cells/mL in 96-well plates (SPL Cell Culture Plate, 96 well (SPL, Cat #30096)), and cultured at 37° C. for 24 hours (overnight). After the culture for 24 hours, the cells were washed with FBS & phenol red-free media, and 100 μL of FBS & phenol red-free media containing a purified protein (final concentration: 10 μM) was added, followed by reaction at 37° C. for 24 hours.
(§2) Subsequently, the cells were washed with FBS & phenol red-free media, and 100 μL of FBS & phenol red-free media was added. 100 μL of FBS & Phenol red-free media (RPMI) containing a Co-h substrate solution (final concentration: 150 μM) was added, followed by reaction at 37° C. for 5 minutes.
(§3) After the reaction, 50 μL of SYTOX Green (final concentration: 261 nM) or 90 μL of ethidium homodimer (EthD-1) (final concentration 1×), which stains DNA of dead cells, was added, followed by reaction at 37° C. for 30 minutes. 10 μL of DAPI staining DNA of live cells was added, followed by reaction for 5 minutes. Cell death was confirmed by observing KillerRed, SYTOX Green, MiniSOG, EthD-1 and DAPI fluorescence using a confocal microscope.

MDA-MB-231 = test: as above; type: cell-based, human; conditions: MDA-MB-231, protein 10 μM, Co-h 150 μM for 5 minutes
Description: as §1, §2, §3

MDA-MB-435 = test: as above; type: cell-based, human; conditions: MDA-MB-435, protein 10 μM, Co-h 150 μM for 5 minutes
Description: as §1, §2, §3

SK-BR-3 = test: as above; type: cell-based, human; conditions: SK-BR-3, protein 10 μM, Co-h 150 μM for 5 minutes
Description: as §1, §2, §3

MCF-10A = test: as above; type: cell-based, human; conditions: protein 10 μM, Co-h 150 μM for 5 minutes
Description: as §1, §2, §3

BT-474 = test: as above; type: cell-based, human; conditions: BT-474, protein 10 μM, Co-h 150 μM for 5 minutes
Description: as §1, §2, §3

Substance: MS: first protein MiniSOG, ROS-generating protein (singlet oxygen), expressed from pRSET-MiniSOG, 13 kDa [reference compound]
- cell viability / colorimetric change of MTT with light irradiation time (MCF-7 cells [1]): alive
- emission wavelength (fluorescence) [2]: 500 nm and 528 nm
- excitation wavelength [2]: 448 nm
- cell viability / colorimetric change of MTT with reaction time with Co-h (MCF-7 cells [3]): the staining becomes pink
- emission in bioluminescence assay (BRET) [4]: 500 nm

Substance: RLuc8-MS: fusion protein of RLuc8 and MiniSOG without lead peptide, 53 kDa
- cell viability / colorimetric change of MTT with light irradiation time (MCF-7 cells [1]): alive
- cell death with Co-h substrate (MCF-7): none of the six breast cancer cell lines were killed
- cell death with Co-h substrate (MDA-MB-231): none of the six breast cancer cell lines were killed
- cell death with Co-h substrate (MDA-MB-435): none of the six breast cancer cell lines were killed
- cell death with Co-h substrate (SK-BR-3): none of the six breast cancer cell lines were killed
- cell death with Co-h substrate (MCF-10A): none of the six breast cancer cell lines were killed
- cell death with Co-h substrate (BT-474): none of the six breast cancer cell lines were killed
- cell viability / colorimetric change of MTT with reaction time with Co-h (MCF-7 cells [3]): the staining becomes pink
